Assay type in all cases: biochemical
The target of one test is PDE9 (Homo sapiens (Human), UniProt O76083). Description: PDE9 inhibition assay, SPA.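 Also: enzyme reaction incubated for 1 h, then stopped by adding yttrium silicate scintillation proximity beads for the read-out.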 To be noted: 10 microM compound; 10 nM 3H-cAMP.
In a further test the target is PDE1B (Homo sapiens (Human), UniProt Q01064). Description: PDE1 inhibition assay (PDE1B), SPA. To be noted: 15 nM tritium labelled cAMP.
The target in a further test is PDE1C (Homo sapiens (Human), UniProt Q14123). Description: PDE1 inhibition assay (PDE1C), SPA. The conditions noted are these: 15 nM tritium labelled cAMP.
Another test addresses PDE1A (Homo sapiens (Human), UniProt P54750). Description: PDE1 inhibition assay (PDE1A), SPA. The conditions noted are these: 15 nM tritium labelled cAMP.

PDE1C, sequence (Q14123 whole entry): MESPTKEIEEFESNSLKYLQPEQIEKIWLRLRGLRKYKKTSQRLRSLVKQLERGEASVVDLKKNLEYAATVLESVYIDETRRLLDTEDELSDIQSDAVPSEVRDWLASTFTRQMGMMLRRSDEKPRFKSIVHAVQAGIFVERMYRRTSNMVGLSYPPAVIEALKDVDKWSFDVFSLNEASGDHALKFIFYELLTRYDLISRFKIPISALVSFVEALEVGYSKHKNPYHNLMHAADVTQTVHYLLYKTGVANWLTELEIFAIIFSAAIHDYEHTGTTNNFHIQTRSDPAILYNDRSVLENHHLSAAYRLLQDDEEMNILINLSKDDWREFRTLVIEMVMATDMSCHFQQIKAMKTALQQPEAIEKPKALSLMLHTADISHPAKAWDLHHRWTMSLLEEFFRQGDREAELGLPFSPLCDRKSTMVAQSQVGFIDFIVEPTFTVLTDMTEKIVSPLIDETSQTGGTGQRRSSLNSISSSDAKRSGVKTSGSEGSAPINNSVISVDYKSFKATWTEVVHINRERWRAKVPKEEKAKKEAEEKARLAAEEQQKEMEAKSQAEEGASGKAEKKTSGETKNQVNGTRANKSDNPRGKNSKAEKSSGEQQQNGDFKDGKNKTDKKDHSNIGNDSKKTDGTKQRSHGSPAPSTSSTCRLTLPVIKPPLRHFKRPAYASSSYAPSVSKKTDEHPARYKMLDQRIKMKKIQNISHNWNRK
PDE9, sequence (O76083 whole entry): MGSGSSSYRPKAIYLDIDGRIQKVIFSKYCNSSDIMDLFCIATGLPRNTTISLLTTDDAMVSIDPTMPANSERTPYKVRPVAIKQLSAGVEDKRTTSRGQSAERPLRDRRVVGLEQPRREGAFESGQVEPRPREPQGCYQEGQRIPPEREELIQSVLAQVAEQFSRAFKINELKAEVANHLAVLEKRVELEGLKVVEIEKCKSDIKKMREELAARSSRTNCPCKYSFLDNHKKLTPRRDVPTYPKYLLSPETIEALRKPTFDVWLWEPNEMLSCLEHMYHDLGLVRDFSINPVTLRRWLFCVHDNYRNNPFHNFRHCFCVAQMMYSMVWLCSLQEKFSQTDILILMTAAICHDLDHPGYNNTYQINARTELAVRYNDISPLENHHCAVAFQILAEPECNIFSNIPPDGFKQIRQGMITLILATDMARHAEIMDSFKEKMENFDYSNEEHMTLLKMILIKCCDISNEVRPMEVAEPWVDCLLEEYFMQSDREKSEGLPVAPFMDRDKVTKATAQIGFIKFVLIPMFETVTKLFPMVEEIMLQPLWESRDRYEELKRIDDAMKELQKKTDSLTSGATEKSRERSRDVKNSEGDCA
PDE1A, sequence (P54750 whole entry): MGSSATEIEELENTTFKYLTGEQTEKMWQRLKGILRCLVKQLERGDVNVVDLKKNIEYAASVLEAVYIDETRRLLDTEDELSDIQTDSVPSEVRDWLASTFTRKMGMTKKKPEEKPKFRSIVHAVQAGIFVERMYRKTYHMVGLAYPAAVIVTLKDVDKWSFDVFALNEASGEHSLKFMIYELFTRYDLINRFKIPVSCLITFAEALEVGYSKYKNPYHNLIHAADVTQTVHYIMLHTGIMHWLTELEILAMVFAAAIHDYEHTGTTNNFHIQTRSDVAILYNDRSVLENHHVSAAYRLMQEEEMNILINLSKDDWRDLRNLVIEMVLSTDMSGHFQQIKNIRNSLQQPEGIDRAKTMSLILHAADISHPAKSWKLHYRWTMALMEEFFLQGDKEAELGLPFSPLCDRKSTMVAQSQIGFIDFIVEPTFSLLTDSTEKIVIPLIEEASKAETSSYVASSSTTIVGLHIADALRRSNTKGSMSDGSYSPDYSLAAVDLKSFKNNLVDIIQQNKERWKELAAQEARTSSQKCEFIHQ
PDE1B, sequence (Q01064 whole entry): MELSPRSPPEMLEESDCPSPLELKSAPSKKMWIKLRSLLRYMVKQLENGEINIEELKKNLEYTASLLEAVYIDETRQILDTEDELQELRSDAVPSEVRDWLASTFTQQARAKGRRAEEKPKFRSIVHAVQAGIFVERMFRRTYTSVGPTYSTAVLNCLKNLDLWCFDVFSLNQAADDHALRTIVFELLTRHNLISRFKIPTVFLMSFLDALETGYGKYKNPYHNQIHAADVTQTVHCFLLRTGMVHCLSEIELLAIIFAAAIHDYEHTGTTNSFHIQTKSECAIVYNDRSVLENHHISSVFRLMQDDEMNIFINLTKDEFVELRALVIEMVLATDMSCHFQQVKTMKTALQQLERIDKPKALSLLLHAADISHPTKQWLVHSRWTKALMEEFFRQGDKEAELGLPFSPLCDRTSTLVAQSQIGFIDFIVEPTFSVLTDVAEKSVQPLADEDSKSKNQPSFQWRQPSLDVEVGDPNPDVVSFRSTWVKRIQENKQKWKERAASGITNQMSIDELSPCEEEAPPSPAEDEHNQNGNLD
Procedure for PDE1A: (§1) Reactions were initiated by addition of the cyclic nucleotide substrate, and reactions were allowed to proceed for 1 hr at room temperature before being terminated through mixing with 20 μL (0.2 mg) yttrium silicate SPA beads (PerkinElmer). The beads were allowed to settle for 1 hr in the dark before the plates were counted in a Wallac 1450 Microbeta counter.
Procedure for PDE1B: Reactions were initiated by addition of the cyclic nucleotide substrate, and reactions were allowed to proceed for 1 hr at room temperature before being terminated through mixing with 20 μL (0.2 mg) yttrium silicate SPA beads (PerkinElmer).
Procedure for PDE1C: as §1
Procedure for PDE9: Reactions are initiated by addition of the cyclic nucleotide substrate, and reactions are allowed to proceed for one hr at room temperature before being terminated through mixing with 15 μL 8 mg/mL yttrium silicate SPA beads (Amersham).
Following 1 hr incubation the reactions were terminated by addition of 15 uL 8 mg/mL yttrium silicate SPA beads (Amersham).

With `COc1ccc(Cn2c(C)cc3c(cnn3[C@@H]3CCO[C@H]3C)c2=O)cc1` (relative stereo) [Example 26, 5-[(4-methoxyphenyl)methyl]-6-methyl-1-[(trans)-2-methyltetrahydrofuran-3-yl]pyrazolo[4,3-c]pyridin-4-one], the inhibition at 10 µM against PDE9 was found to be 8%. In addition, the IC50 was found to be 83 nM at PDE1B, 345 nM against PDE1C and 206 nM on PDE1A.

For `COc1ccc(Cn2c(C)cc3c(cnn3[C@@H]3CCO[C@@H]3C)c2=O)cc1` (relative stereo) [Example 27, 5-[(4-methoxyphenyl)methyl]-6-methyl-1-[(cis)-2-methyltetrahydrofuran-3-yl]pyrazolo[4,3-c]pyridin-4-one], on PDE9, the inhibition at 10 µM is 13%. Besides, the figures for the half-inhibitory concentration (IC50) on PDE1B, against PDE1C and against PDE1A were 179 nM, 686 nM and 1300 nM, respectively.

Turning to `O=c1c2cnn(C3CCOCC3)c2nc(Cc2ccccc2)n1CC1CCCCC1` [Example 1, 6-benzyl-5-(cyclohexylmethyl)-1-(tetrahydro-2H-pyran-4-yl)-1,5-dihydro-4H-pyrazolo[3,4-d]pyrimidin-4-one], the inhibition at 10 µM against PDE9 is 51%. For the same molecule, the concentration for half-maximal inhibition (IC50) is 320 nM at PDE1B, 120 nM on PDE1C and 349 nM against PDE1A.

With `COc1ccc(Cn2c(C)nc3c(cnn3C3CCOCC3)c2=O)cc1` [Example 2, 5-(4-methoxybenzyl)-6-methyl-1-(tetrahydro-2H-pyran-4-yl)-1H-pyrazolo[3,4-d]pyrimidin-4(5H)-one], the inhibition at 10 µM against PDE9 came to 10%. The IC50 came to 62 nM against PDE1B, 74 nM on PDE1C and 132 nM against PDE1A.

For `Cc1nc2c(cnn2C2CCOCC2)c(=O)n1CC1CCCCC1` [Example 3, 5-(cyclohexylmethyl)-6-methyl-1-tetrahydropyran-4-yl-pyrazolo[3,4-d]pyrimidin-4-one], on PDE9, the inhibition at 10 µM was 29%. Besides, the values for the half-maximal inhibitory concentration (IC50) on PDE1B, on PDE1C and at PDE1A were 103 nM, 29 nM and 172 nM, respectively.

With `CCCn1ncc2c(=O)n(Cc3ccc(OC)cc3)c(C)nc21` [Example 4, 5-[(4-methoxyphenyl)methyl]-6-methyl-1-propyl-pyrazolo[3,4-d]pyrimidin-4-one], the inhibition at 10 µM on PDE9 stood at 13%. Also, the half-maximal inhibitory concentration (IC50) at PDE1B came out at 68 nM; on PDE1C, 72 nM; at PDE1A it was 108 nM.

Turning to `CCCn1ncc2c(=O)n(CC3CCCCC3)c(C)nc21` [Example 5, 5-(cyclohexylmethyl)-6-methyl-1-propyl-pyrazolo[3,4-d]pyrimidin-4-one], at PDE9, the inhibition at 10 µM was -16%. Moreover, the IC50 on PDE1B turned out to be 31 nM; against PDE1C, 36 nM; against PDE1A, 111 nM.

Take `CCc1nc2c(cnn2C2CCOCC2)c(=O)n1Cc1ccc(OC)cc1` [Example 6, 6-ethyl-5-[(4-methoxyphenyl)methyl]-1-tetrahydropyran-4-yl-pyrazolo[3,4-d]pyrimidin-4-one]: the inhibition at 10 µM against PDE9 worked out at 2%. Moreover, the IC50 is 80 nM against PDE1B, 140 nM at PDE1C and 107 nM against PDE1A.

With `COCc1nc2c(cnn2C2CCOCC2)c(=O)n1Cc1ccc(OC)cc1` [Example 7, 6-(methoxymethyl)-5-[(4-methoxyphenyl)methyl]-1-tetrahydropyran-4-yl-pyrazolo[3,4-d]pyrimidin-4-one], the inhibition at 10 µM at PDE9 was -12%. The half-maximal inhibitory concentration (IC50) is 181 nM against PDE1B, 345 nM at PDE1C and 325 nM on PDE1A.

For the molecule `COc1ccc(Cn2c(C(C)C)nc3c(cnn3C3CCOCC3)c2=O)cc1` [Example 8, 6-isopropyl-5-[(4-methoxyphenyl)methyl]-1-tetrahydropyran-4-yl-pyrazolo[3,4-d]pyrimidin-4-one], the inhibition at 10 µM against PDE9 turned out to be 7%. Further, the concentration for half-maximal inhibition (IC50) turned out to be 211 nM against PDE1B, 1320 nM at PDE1C and 751 nM against PDE1A.

Take `COc1ccc(Cn2c(CC3COC3)nc3c(cnn3C3CCOCC3)c2=O)cc1` [Example 9, 5-[(4-methoxyphenyl)methyl]-6-(oxetan-3-ylmethyl)-1-tetrahydropyran-4-yl-pyrazolo[3,4-d]pyrimidin-4-one]: the inhibition at 10 µM against PDE9 was determined as 12%. Further, the IC50 was found to be 58 nM on PDE1B and 165 nM against PDE1C.

As for `Cc1cc2c(cnn2C2CCOCC2)c(=O)n1Cc1cccc(F)c1` [Example 10, 5-[(3-fluorophenyl)methyl]-6-methyl-1-tetrahydropyran-4-yl-pyrazolo[4,3-c]pyridin-4-one], on PDE9, the inhibition at 10 µM came to 3%. The values for the half-inhibitory concentration (IC50) against PDE1C and on PDE1A were 149 nM and 1070 nM, respectively.

As to `Cc1cc2c(cnn2C2CCOCC2)c(=O)n1Cc1ccccc1F` [Example 11, 5-[(2-fluorophenyl)methyl]-6-methyl-1-tetrahydropyran-4-yl-pyrazolo[4,3-c]pyridin-4-one], the inhibition at 10 µM against PDE9 turned out to be 12%. In addition, the results for the IC50 at PDE1C and against PDE1A were 61 nM and 589 nM, respectively.

`Cc1cc2c(cnn2C2CCOCC2)c(=O)n1Cc1ccc(Cl)cc1` [Example 12, 5-[(4-chlorophenyl)methyl]-6-methyl-1-tetrahydropyran-4-yl-pyrazolo[4,3-c]pyridin-4-one]: the inhibition at 10 µM against PDE9 was determined as 16%. The IC50 is 419 nM against PDE1C and 127 nM against PDE1A.

As to `Cc1cc2c(cnn2C2CCOCC2)c(=O)n1Cc1ccccc1` [Example 13, 5-benzyl-6-methyl-1-tetrahydropyran-4-yl-pyrazolo[4,3-c]pyridin-4-one], the inhibition at 10 µM on PDE9 was -18%. The results for the IC50 against PDE1C and at PDE1A were 135 nM and 1260 nM, respectively.

As to `Cc1cc2c(cnn2C2CCOCC2)c(=O)n1Cc1cccc(Cl)c1` [Example 14, 5-[(3-chlorophenyl)methyl]-6-methyl-1-tetrahydropyran-4-yl-pyrazolo[4,3-c]pyridin-4-one], on PDE9, the inhibition at 10 µM is -15%. In addition, the half-inhibitory concentration (IC50) at PDE1B was determined as 413 nM; against PDE1C, 95 nM; on PDE1A it was 1300 nM.

In the case of `Cc1cc2c(cnn2C2CCOCC2)c(=O)n1Cc1ccc(F)cc1` [Example 15, 5-[(4-fluorophenyl)methyl]-6-methyl-1-tetrahydropyran-4-yl-pyrazolo[4,3-c]pyridin-4-one], the inhibition at 10 µM against PDE9 was -13%. In addition, the IC50 on PDE1B turned out to be 258 nM; against PDE1C it was 204 nM; against PDE1A it was 1240 nM.

For the molecule `Cc1ccc(Cn2c(C)cc3c(cnn3C3CCOCC3)c2=O)cc1` [Example 16, 6-methyl-5-(p-tolylmethyl)-1-tetrahydropyran-4-yl-pyrazolo[4,3-c]pyridin-4-one], the inhibition at 10 µM on PDE9 is -1%. For the same molecule, the half-maximal inhibitory concentration (IC50) on PDE1B was determined as 71 nM; at PDE1C, 496 nM; against PDE1A, 400 nM.

Take `Cc1cc2c(cnn2C2CCOCC2)c(=O)n1Cc1ccc2c(c1)OCO2` [Example 17, 5-(1,3-benzodioxol-5-ylmethyl)-6-methyl-1-tetrahydropyran-4-yl-pyrazolo[4,3-c]pyridin-4-one]: on PDE9, the inhibition at 10 µM is -2%. Besides, the half-maximal inhibitory concentration (IC50) against PDE1B was 154 nM; at PDE1C, 662 nM; against PDE1A, 429 nM.

Take `COc1ccc(Cn2c(C)cc3c(cnn3C3CCOCC3)c2=O)cn1` [Example 18, 5-[(6-methoxy-3-pyridyl)methyl]-6-methyl-1-tetrahydropyran-4-yl-pyrazolo[4,3-c]pyridin-4-one]: at PDE9, the inhibition at 10 µM turned out to be 9%. Besides, the IC50 against PDE1C is 1170 nM; against PDE1A, 738 nM.

With `COc1ccc(Cn2c(C)cc3c(cnn3C3CCOCC3)c2=O)cc1` [Example 19, 5-(4-methoxybenzyl)-6-methyl-1-(tetrahydro-2H-pyran-4-yl)-1,5-dihydro-4H-pyrazolo[4,3-c]pyridin-4-one], the inhibition at 10 µM against PDE9 came out at 19%. The IC50 against PDE1C was found to be 171 nM; against PDE1A it was 184 nM.

Regarding `CCCn1ncc2c(=O)n(Cc3ccc(OC)cc3)c(C)cc21` [Example 20, 5-(4-methoxybenzyl)-6-methyl-1-propyl-1,5-dihydro-4H-pyrazolo[4,3-c]pyridin-4-one], at PDE9, the inhibition at 10 µM turned out to be 19%. The IC50 was 82 nM against PDE1B, 233 nM against PDE1C and 290 nM against PDE1A.

`COc1ccc(Cn2c(C)cc3c(cnn3C(C)C)c2=O)cc1` [Example 21, 1-isopropyl-5-[(4-methoxyphenyl)methyl]-6-methyl-pyrazolo[4,3-c]pyridin-4-one]: the inhibition at 10 µM at PDE9 was -14%. Besides, the figures for the IC50 against PDE1B, at PDE1C and against PDE1A were 37 nM, 134 nM and 49 nM, respectively.

With `COc1ccc(Cn2c(C)cc3c(cnn3C3CCOC3)c2=O)cc1` (stereo not shown) [Example 22, 5-[(4-methoxyphenyl)methyl]-6-methyl-1-tetrahydrofuran-3-yl-pyrazolo[4,3-c]pyridin-4-one], the inhibition at 10 µM against PDE9 is 8%. Moreover, the 50% inhibitory concentration (IC50) was determined as 569 nM against PDE1B, 1200 nM against PDE1C and 1690 nM on PDE1A.

As for `COc1ccc(Cn2c(C)cc3c(cnn3C3CC3)c2=O)cc1` [Example 23, 1-cyclopropyl-5-[(4-methoxyphenyl)methyl]-6-methyl-pyrazolo[4,3-c]pyridin-4-one], the inhibition at 10 µM on PDE9 was -6%. Further, the concentration for half-maximal inhibition (IC50) against PDE1B is 255 nM; against PDE1C, 975 nM; on PDE1A it was 543 nM.

Turning to `CCn1ncc2c(=O)n(Cc3ccc(OC)cc3)c(C)cc21` [Example 24, 1-ethyl-5-[(4-methoxyphenyl)methyl]-6-methyl-pyrazolo[4,3-c]pyridin-4-one], the inhibition at 10 µM against PDE9 came to 19%. For the same molecule, the half-maximal inhibitory concentration (IC50) against PDE1B turned out to be 329 nM; against PDE1C, 1330 nM; on PDE1A, 1120 nM.

Take `COc1ccc(Cn2c(C)cc3c(cnn3C3CCCOC3)c2=O)cc1` (stereo not shown) [Example 25, 5-[(4-methoxyphenyl)methyl]-6-methyl-1-tetrahydropyran-3-yl-pyrazolo[4,3-c]pyridin-4-one]: the inhibition at 10 µM on PDE9 was 8%. For the same molecule, the values for the IC50 at PDE1C and on PDE1A were 644 nM and 825 nM, respectively.

The values above are taken from patent US11104680B2, “1,5-dihydro-4H-pyrazolo[3,4-d]pyrimidin-4-ones and 1,5-dihydro-4H-pyrazolo[4,3-c]pyridin-4-ones as PDE1 inhibitors” (H. Lundbeck A/S, priority 2016, dated 2021).
